Measurements: patent publication US20220002396A1, “METHODS OF TREATING CANCER WITH FARNESYLTRANSFERASE INHIBITORS” (Kura Oncology, Inc., priority 2018, published 2022)

Assays:
Assay type in all cases: in vivo, human
CMML = experiment: Tipifarnib-treated CMML subjects with pre-treatment BM gene expression data; conditions: in 17 tipifarnib-treated CMML subjects
Method: (§1) Gene expression profile (GEP) data generated using RNA-Seq and the Affymetrix U133A gene-chip of tumor samples from 71 patients enrolled in tipifarnib trials (CTEP-20, KO-TIP-002, KO-TIP-004) were analyzed with respect to study outcomes and complemented with analyses of mRNA expression in data sets from the cBioportal for Cancer Genomics. Clinical trial information: NCT00027872, NCT02464228, NCT02807272.
Four objective responses and 1 tumor lysis syndrome were reported in 17 tipifarnib-treated CMML subjects with available pre-treatment BM gene expression data. CXCL12 expression (p=0.07) and the CXCL12/CXCR4 ratio (p=0.03) were predictive of those events while IGF1 expression levels were barely detectable in these patients.

previously untreated AML = experiment: Tipifarnib monotherapy in elderly patients with previously untreated AML (CTEP-20), outcome by IGF1/CXCL12 expression
Method: as §1
Data from a study investigating tipifarnib monotherapy in elderly patients with previously untreated AML (CTEP-20) was examined in detail to determine the effect of the expression of CXCL12 and IGF1 on the response of the patients to tipifarnib.
The effect of IGF1/CXCL12 co-expression on patient outcome in tipifarnib was examined. In previously untreated AML, 3 subsets of patients were identified with respect to IGF1/CXCL12 expression (FIG. 2A). These subsets were 1) high IGF1, high CXCL12 (left boxplots), 2) intermediate IGF1, low CXCL12 (middle boxplots), and 3) low IGF1, variable CXCL12, (right boxplots).
When CXCL12 was at low levels and IGF1 was at intermediate levels, low CXCL12 levels translates to disease progression with 1 CR and 8 with progressive disease (PD) as outcome (FIG. 2C). When the IGF1 levels were low, CXCL12 had variable levels and six patients out of 15 experienced CR. […] Receiver-Operator-Characterisitics (ROC) curves for prediction of a CR in these patients confirmed that higher CXCL12 and lower IGF1 levels were predictive of complete responses in the AML patient population (FIG. 2E).

breast cancer = experiment: Phase II study of tipifarnib in breast cancer patients (Study GBR-1)
Method: Biomarkers in breast cancer were also examined for their relationship to CXCL12/IGF1 expression and to the activity of tipifarnib when administered to patients. A phase II study was performed with 76 patients treated with tipifarnib (Study GBR-1). Patients were tested for estrogen-receptor positivity (ER+) or negativity (ER−), progesterone receptor positivity (PGR+) or negativity (PGR−), and the presence or absence of TP53 mutation. Overall response rate in the study was 12%. Biomarker data was available for 41 patients.

nodal PTCL = experiment: Tipifarnib monotherapy in nodal PTCL patients with pre-treatment GEP data; conditions: 13 nodal PTCL patients
Method: as §1
The effect of CXCL12 and IGF1 was also investigated in 13 nodal PTCL patients with pre-treatment GEP data who received tipifarnib monotherapy. […] Adjusting the IGFBP7 expression to the level of IGF1R expression also identified those patients as responders to therapy.

[1] = tested on: advanced pancreatic adenocarcinoma; experiment: Randomized, double-blind, placebo-controlled study of gemcitabine+tipifarnib versus gemcitabine+placebo (Study INT-17 / INT-11)
Method: In a randomized, double-blind, placebo-controlled study of gemcitabine+tipifarnib versus gemcitabine+placebo in patients with advanced pancreatic adenocarcinoma previously untreated with systemic therapy, tipifarnib (R115777) was administered at a dosage amount of 200 mg twice a day, orally, and continuously (Study INT-17). Gemcitabine was administered intravenously at a dosage amount of 1,000 mg/m(2) weekly x 7 for 8 weeks, then weekly x 3 every 4 weeks. 686 patients were enrolled. The median overall survival for the experimental arm was 193 v 182 days for the control arm (P=0.75).

[2] = subset intermediate IGF1, low CXCL12

| Compound | tumor lysis syndrome (CMML) | complete response (CR) (previously untreated AML; subset high IGF1, high CXCL12, out of 10 subjects) | complete response (CR) (previously untreated AML; [2]) | progressive disease (PD) as outcome (previously untreated AML; [2]) | Overall response rate (breast cancer; 76 patients treated) | objective response rate (breast cancer; four patients with PGR(+) and ER(−) tumors) | RESPONSE (breast cancer; one line per patient, PGR(+) ER(−) population) | objective response rate (breast cancer; seven patients with PGR(+) and wild type TP53 tumors) | partial responses (PR) (nodal PTCL) | median overall survival ([1]; 686 patients enrolled, tipifarnib 200 mg twice a day orally, gemcitabine 1,000 mg/m(2) IV, P=0.75) | survival of patients not reporting versus reporting abdominal pain at study entry, within arm ([1]; FIG. 5B) | Neutropenia grade > or =3 ([1]; all patients, per arm) | thrombocytopenia grade > or =3 ([1]; all patients, per arm) |
| --- | --- | --- | --- | --- | --- | --- | --- | --- | --- | --- | --- | --- | --- |
| Cn1cncc1[C@@](N)(c1ccc(Cl)cc1)c1ccc2c(c1)c(-c1cccc(Cl)c1)cc(=O)n2C [tipifarnib] | 1 | 2 patients | 1 | 8 | 12% | 75% | NO RESPONSE | 57% | 2 | – | – | – | – |
| gemcitabine [gemcitabine+placebo] | – | – | – | – | – | – | – | – | – | 182 days | not significantly different | 30% | 12% |
